Among the data in ChEMBL document CHEMBL5446079, “Affinity Biochemical Literature for EUbOPEN Chemogenomic Library” (2024) are IC50 and Kd values, retold here.

The target of experiment [1] is Dual specificity protein kinase CLK4 (Homo sapiens, UniProt Q9HAZ1).
Experiment [2] concerns the target Dual specificity protein kinase CLK2 (Homo sapiens, UniProt P49760).
The target in experiment [3] is Dual specificity protein kinase CLK1 (Homo sapiens, UniProt P49759).
For experiment [4], the target named is T1, Histone-lysine N-methyltransferase NSD3 (Homo sapiens, UniProt Q9BZ95).
T1 sequence (Q9BZ95 whole entry): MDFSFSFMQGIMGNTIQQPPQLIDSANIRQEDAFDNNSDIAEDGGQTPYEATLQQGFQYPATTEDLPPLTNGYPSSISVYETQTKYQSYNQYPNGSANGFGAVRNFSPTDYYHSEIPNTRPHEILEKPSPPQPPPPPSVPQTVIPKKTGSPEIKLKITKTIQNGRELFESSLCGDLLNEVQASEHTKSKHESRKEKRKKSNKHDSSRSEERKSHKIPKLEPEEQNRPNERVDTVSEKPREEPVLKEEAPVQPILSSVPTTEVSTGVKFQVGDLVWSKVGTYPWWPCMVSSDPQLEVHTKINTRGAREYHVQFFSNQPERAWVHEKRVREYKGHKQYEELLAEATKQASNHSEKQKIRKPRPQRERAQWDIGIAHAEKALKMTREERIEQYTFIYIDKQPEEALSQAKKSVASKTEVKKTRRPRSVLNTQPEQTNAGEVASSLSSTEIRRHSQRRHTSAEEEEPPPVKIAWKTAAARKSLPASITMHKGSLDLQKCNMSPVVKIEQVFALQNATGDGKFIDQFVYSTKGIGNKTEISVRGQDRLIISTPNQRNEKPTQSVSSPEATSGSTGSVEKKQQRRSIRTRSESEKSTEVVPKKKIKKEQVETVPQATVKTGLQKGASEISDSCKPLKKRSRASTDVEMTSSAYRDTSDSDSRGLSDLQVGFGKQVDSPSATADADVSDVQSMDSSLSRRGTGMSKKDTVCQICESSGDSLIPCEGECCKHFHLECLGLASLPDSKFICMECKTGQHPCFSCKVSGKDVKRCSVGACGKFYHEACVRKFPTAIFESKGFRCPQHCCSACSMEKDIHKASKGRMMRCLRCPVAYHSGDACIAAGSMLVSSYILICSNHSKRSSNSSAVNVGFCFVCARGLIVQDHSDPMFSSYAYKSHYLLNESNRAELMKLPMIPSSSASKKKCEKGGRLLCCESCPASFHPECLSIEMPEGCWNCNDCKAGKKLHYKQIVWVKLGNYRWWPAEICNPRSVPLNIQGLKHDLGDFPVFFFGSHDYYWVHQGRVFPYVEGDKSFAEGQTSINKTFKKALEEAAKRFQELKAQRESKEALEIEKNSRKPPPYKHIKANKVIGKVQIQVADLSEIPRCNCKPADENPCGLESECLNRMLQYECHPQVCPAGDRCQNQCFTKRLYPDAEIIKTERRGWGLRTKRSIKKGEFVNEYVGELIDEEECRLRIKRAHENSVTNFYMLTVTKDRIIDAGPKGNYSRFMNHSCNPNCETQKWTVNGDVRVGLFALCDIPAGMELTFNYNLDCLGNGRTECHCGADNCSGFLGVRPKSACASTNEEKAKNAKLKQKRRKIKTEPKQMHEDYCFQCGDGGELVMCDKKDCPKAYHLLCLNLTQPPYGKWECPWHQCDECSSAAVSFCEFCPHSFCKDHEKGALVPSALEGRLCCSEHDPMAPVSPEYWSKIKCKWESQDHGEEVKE

For experiment [5], the target named is Protein-arginine deiminase type-4 (Homo sapiens, UniProt Q9UM07).
A further experiment addresses SRSF protein kinase 2 (Homo sapiens, UniProt P78362).
A further experiment deals with SRSF protein kinase 1 (Homo sapiens, UniProt Q96SB4).
Experiment [6] deals with Nucleosome-remodeling factor subunit BPTF (Homo sapiens, UniProt Q12830).
For experiment [7], the target named is Chromatin remodeling regulator CECR2 (Homo sapiens, UniProt Q9BXF3).
Another experiment addresses CDK8/Cyclin C (Homo sapiens, UniProt P49336). It is filed as protein-complex assay.
The target in experiment [8] is T2, Bromodomain-containing protein 9 (Homo sapiens, UniProt Q9H8M2).
T2 sequence (Q9H8M2 whole entry): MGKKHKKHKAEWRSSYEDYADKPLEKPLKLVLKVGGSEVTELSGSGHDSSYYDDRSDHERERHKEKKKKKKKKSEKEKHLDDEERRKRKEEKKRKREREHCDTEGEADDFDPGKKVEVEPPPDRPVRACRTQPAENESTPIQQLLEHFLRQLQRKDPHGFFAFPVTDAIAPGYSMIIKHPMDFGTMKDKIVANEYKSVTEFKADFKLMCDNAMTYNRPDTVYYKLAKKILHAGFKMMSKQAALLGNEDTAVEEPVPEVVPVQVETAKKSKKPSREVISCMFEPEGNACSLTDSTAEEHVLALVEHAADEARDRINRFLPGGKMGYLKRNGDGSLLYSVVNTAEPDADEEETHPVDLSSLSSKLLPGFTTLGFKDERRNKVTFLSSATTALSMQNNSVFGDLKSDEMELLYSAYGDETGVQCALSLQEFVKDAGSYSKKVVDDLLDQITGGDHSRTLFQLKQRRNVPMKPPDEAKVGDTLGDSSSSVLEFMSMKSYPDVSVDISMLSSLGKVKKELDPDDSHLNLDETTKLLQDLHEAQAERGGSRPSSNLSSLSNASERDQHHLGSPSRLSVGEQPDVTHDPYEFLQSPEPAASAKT

Sequence of CDK8/Cyclin C (P49336 whole entry): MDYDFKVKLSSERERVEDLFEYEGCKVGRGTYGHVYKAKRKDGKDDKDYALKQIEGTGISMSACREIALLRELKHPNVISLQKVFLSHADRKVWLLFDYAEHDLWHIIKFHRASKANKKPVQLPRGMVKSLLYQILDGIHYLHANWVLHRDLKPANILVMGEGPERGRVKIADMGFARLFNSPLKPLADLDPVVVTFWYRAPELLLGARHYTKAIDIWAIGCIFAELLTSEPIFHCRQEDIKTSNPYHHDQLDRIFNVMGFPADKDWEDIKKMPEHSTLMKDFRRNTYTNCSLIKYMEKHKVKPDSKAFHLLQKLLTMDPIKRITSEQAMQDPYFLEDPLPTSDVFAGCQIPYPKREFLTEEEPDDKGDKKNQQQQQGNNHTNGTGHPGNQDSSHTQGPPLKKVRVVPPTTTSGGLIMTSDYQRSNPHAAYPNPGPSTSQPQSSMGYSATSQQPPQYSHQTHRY
Sequence of CDK8/Cyclin C (P24863 whole entry, further chain): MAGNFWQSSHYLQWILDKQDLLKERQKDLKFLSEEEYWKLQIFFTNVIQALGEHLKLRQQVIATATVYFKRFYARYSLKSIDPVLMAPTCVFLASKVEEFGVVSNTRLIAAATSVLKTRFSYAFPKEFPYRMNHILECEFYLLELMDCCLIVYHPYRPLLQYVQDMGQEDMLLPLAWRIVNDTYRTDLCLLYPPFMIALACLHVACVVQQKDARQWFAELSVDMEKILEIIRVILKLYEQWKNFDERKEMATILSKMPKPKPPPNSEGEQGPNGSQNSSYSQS
Sequence of SRSF protein kinase 2 (P78362 whole entry): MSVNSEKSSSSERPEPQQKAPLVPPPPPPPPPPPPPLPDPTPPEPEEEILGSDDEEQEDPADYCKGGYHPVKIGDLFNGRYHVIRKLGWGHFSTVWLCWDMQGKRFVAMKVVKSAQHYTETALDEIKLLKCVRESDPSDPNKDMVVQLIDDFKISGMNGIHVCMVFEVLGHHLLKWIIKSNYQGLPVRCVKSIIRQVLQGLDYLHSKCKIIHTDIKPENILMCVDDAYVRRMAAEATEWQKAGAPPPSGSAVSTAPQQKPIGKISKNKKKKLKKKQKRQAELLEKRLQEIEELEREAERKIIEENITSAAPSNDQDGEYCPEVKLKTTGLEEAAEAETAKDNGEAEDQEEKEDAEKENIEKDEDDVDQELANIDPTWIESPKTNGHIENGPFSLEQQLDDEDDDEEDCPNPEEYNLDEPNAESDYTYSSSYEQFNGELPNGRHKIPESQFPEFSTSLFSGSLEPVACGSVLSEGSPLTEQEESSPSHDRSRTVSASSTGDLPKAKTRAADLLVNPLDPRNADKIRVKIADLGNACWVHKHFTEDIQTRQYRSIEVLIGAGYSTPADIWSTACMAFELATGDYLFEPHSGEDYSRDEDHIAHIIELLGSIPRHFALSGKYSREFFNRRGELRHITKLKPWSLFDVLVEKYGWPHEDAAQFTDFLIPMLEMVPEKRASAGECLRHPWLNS
Sequence of Protein-arginine deiminase type-4 (Q9UM07 whole entry): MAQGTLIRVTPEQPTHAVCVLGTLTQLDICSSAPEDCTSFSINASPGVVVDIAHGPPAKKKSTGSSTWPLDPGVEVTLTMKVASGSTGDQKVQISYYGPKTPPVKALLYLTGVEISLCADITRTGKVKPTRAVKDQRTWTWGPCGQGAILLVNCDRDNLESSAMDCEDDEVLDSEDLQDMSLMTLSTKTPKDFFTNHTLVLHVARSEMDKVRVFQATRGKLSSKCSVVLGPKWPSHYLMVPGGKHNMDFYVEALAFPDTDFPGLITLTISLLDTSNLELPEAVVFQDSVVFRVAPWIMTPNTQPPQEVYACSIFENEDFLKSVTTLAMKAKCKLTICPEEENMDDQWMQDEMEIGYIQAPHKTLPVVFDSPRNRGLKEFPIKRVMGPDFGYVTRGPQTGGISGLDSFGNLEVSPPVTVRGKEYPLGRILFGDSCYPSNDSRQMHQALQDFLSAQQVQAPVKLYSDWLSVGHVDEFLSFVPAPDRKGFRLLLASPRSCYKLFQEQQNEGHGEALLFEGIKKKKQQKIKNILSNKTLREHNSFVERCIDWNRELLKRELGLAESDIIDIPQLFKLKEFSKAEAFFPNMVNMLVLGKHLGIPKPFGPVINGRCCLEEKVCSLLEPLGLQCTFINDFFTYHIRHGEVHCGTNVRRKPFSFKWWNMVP
Sequence of Dual specificity protein kinase CLK4 (Q9HAZ1 whole entry): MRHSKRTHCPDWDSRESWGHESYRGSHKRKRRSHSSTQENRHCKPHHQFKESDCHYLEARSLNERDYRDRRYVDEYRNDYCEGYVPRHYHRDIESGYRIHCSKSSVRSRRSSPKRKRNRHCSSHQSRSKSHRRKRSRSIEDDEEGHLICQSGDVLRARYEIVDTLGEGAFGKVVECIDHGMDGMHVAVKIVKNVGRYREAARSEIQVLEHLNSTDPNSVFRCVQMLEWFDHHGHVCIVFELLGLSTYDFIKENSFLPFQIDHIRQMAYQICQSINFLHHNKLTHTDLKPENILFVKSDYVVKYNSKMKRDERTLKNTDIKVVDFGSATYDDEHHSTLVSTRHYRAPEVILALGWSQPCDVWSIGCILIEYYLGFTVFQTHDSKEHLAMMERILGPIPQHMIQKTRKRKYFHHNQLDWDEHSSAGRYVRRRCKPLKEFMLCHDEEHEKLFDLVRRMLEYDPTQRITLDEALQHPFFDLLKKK
Sequence of Chromatin remodeling regulator CECR2 (Q9BXF3 whole entry): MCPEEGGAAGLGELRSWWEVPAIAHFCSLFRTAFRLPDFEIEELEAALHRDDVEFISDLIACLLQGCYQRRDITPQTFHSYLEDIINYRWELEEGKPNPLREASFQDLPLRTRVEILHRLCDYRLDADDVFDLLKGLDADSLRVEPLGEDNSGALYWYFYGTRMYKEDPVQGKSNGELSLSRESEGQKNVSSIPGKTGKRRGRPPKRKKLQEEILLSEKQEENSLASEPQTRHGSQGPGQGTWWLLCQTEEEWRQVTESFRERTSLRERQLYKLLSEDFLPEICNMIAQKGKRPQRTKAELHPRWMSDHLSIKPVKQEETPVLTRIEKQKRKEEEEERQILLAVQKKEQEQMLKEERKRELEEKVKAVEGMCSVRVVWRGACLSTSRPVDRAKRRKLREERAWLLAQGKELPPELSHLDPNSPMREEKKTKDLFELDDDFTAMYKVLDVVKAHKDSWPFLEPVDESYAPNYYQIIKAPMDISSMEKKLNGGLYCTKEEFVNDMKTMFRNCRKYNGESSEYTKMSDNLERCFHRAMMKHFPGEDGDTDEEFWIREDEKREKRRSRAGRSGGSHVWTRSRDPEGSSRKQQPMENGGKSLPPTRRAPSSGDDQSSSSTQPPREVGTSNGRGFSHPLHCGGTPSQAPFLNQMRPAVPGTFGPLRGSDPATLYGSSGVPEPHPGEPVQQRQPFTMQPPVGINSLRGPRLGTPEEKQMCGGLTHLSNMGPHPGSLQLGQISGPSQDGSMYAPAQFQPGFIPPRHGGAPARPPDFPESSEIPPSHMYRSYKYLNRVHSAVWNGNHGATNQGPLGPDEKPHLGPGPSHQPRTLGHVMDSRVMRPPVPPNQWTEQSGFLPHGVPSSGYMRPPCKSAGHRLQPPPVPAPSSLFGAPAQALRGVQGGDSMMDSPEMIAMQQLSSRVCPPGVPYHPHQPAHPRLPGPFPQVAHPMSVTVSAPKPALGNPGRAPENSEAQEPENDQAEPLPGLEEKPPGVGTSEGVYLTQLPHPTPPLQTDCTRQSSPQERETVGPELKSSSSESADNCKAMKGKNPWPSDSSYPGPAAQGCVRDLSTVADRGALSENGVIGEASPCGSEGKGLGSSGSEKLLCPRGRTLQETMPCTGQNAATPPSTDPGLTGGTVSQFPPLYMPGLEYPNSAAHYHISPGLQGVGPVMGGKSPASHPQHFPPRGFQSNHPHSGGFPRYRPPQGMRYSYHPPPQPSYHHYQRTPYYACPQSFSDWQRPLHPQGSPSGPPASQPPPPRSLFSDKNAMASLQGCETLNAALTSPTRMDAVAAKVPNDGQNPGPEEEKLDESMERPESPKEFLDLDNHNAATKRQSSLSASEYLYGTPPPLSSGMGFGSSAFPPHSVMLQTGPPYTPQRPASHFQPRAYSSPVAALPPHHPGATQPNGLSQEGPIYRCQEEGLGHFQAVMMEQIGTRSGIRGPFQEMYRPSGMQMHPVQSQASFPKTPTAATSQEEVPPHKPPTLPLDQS
Sequence of Dual specificity protein kinase CLK2 (P49760 whole entry): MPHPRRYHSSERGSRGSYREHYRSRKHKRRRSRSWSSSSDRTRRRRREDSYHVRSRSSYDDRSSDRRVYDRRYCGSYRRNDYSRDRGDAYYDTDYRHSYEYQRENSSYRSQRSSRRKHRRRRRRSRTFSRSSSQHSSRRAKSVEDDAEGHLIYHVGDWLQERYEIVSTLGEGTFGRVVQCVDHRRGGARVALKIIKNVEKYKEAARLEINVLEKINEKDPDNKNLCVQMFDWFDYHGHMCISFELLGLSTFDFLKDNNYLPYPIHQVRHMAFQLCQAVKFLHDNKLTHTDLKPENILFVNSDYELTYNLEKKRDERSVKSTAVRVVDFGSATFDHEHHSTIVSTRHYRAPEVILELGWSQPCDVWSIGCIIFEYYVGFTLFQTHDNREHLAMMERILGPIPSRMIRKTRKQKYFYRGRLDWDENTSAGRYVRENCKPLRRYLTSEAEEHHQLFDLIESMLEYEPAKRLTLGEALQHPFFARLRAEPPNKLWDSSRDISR
Sequence of Dual specificity protein kinase CLK1 (P49759 whole entry): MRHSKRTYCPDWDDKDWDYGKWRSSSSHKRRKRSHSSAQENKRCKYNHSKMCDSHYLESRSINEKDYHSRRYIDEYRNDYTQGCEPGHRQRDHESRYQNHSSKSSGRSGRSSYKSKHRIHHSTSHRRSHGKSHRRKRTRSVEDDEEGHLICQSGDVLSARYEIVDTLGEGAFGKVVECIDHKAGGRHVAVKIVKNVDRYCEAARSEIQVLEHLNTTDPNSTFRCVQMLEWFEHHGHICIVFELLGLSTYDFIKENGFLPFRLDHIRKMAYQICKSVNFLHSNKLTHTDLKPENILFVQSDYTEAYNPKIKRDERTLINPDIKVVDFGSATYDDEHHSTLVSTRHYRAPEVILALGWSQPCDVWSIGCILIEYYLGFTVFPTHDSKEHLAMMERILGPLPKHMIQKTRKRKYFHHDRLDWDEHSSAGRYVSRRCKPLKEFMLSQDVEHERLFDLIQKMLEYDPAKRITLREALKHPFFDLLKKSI

For `COc1cc(Nc2nc(C)cc(-c3cnn4nc(OC)ccc34)n2)cc(C(F)(F)F)c1`, the IC50 in experiment [1], in experiment [2] and in [3] was above 10 µM in each case.
Turning to `Cc1cc(CN)cc(C)c1-c1ncn(C)c1-c1cncn1C`, in [4], the IC50 (commonly the concentration that inhibits the measured activity by half) was determined as 120 µM.
In turn, `CCn1c(-c2nc3cc(C(=O)N4CCCC(N)C4)ccc3n2C)cc2ccccc21` (stereo unspecified) registered an IC50 in experiment [5] above 100 µM.
Turning to `CN(c1ncccc1CNc1ccnc(-c2cc3cc(Cl)ccc3[nH]2)n1)S(C)(=O)=O`, the IC50 against SRSF protein kinase 2 and at SRSF protein kinase 1 was above 10 µM throughout.
Consider `CN(C)CCCOc1ccc(-c2cc(NCCCn3cccn3)nc(S(C)(=O)=O)n2)cc1`, for which the IC50 in experiment [6] and in experiment [7] was 30.3 µM in each case.
For the compound `CN(C)C(=O)Cn1cc(-c2ccc(-c3nnc4ccccn34)cc2)cn1`, the midpoint of inhibition at CDK8/Cyclin C, the IC50, lay at 0.671 µM.
Take `CC(=O)c1cc(-c2ccccc2OCC2CC2)c2ncccn12`: the equilibrium dissociation constant (Kd) (usually the equilibrium constant for the complex coming apart) in experiment [8] is above 20 µM.
